Results published in patent US20120122870A1, “Treatment Of Ischemia-Reperfusion Injury” (MUSC FOUNDATION FOR RESEARCH DEVELOPMENT, priority 2009, published 2012).

Columns and labels:
recombinant human SK = molecular target: T1, recombinant human SK (Homo sapiens, UniProt Q9NYA1); assay: Recombinant human SK activity assay ([3H]sphingosine to [3H]S1P); type: biochemical; conditions: Human SK incubated with 6 μg/mL of compound; percentage of SK activity inhibited
T1 construct: GST (glutathione-S-transferase) (N); made in house; host or cells: bacteria (pGEX bacterial expression vector)
T1 sequence (Q9NYA1 whole entry): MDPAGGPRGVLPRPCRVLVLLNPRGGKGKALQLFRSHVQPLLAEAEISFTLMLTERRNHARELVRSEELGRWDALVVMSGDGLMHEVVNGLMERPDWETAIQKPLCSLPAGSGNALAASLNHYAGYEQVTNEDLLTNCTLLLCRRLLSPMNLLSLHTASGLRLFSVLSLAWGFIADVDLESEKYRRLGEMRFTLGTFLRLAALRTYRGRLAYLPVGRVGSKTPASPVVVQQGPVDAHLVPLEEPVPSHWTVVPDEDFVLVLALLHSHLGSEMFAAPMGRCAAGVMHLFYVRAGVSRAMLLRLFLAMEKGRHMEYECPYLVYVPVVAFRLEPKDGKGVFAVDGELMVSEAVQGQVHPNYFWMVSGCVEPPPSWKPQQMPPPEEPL
Protocol: SK activity is measured by incubation of the recombinant SK with [^3H]sphingosine and 1 mM ATP under defined conditions, followed by extraction of the assay mixture with chloroform:methanol under basic conditions. […] Radioactivity in aliquots of the aqueous phase is then quantified as a measure of [^3H]S1P formation.
Human SK was incubated with 6 μg/mL of the indicated compounds, and then assayed for activity as described above. Values in the column labeled “Recombinant SK (% inhibition)” represent the percentage of SK activity that was inhibited. MDA-MB-231 cells were incubated with 20 μg/mL of the indicated compounds and then assayed for endogenous SK activity as indicated above. Values in the column labeled “Cellular S1P (% inhibition)” represent the percentage of S1P production that was inhibited. Additionally, MDA-MB-231 cells were treated with varying concentration of certain compounds and the amount of S1P produced by the cells was determined. Values in the column labeled “Cellular S1P IC50 (μM)” represent the concentration of compound required to inhibit the production of S1P by 50%. ND=not determined.

[1] = test system: endogenous SK activity in MDA-MB-231 cells; assay: Cellular S1P production (endogenous SK activity) in MDA-MB-231 cells; type: cell-based; conditions: for inhibition at 20 µg/mL / IC50: Homo sapiens; for inhibition at 20 µg/mL: MDA-MB-231, MDA-MB-231 cells incubated with 20 μg/mL of compound; for IC50: MDA-MB-231 cells, varying concentrations, concentration inhibiting S1P production by 50%
Method in brief: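 MDA-MB-231 cells treated with 20 μg/mL compound and assayed for endogenous SK activity, reported as % inhibition of S1P production. For IC50, cells received varying compound concentrations and S1P produced was measured; IC50 is the concentration giving 50% inhibition.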

[2] = percentage of S1P production inhibited

Row | inhibition at 6 µg/mL (recombinant human SK) [%] | Recombinant SK (% inhibition) (recombinant human SK) [%] | IC50 [1] [µM] | SMILES | inhibition at 20 µg/mL [1, 2] [%] | Cellular S1P (% inhibition) ([1]; MDA-MB-231 cells incubated with 20 μg/mL of compound, percentage of S1P production inhibited) [%]
1 | 54 | – | – | CN1CCN(NC(=O)C23CC4CC(C2)CC(c2ccc(Cl)cc2)(C4)C3)CC1 [A52, 3-(4-Chloro-phenyl)-adamantane-1-carboxylic acid (4-methyl-piperazin-1-yl)-amide] | 61 | –
2 | 33 | – | – | CN1CCCC1CCNC(=O)C12CC3CC(CC(C3)C1)C2 (centres unmarked) [A56, Adamantane-1-carboxylic acid [2-(1-methyl-pyrrolidin-2-yl)-ethyl]-amide] | 40 | –
3 | 30 | – | 60 | CN1CCCC1CCNC(=O)C12CC3CC(C1)CC(c1ccc(Cl)cc1)(C3)C2 (centres unmarked) [A57, 3-(4-Chloro-phenyl)-adamantane-1-carboxylic acid [2-(1-methyl-pyrrolidin-2-yl)-ethyl]-amide] | 83 | –
4 | 67 | – | – | O=C(NCCN1CCOCC1)C12CC3CC(C1)CC(c1ccc(Cl)cc1)(C3)C2 [A58, 3-(4-Chloro-phenyl)-adamantane-1-carboxylic acid (2-morpholin-4-yl-ethyl)-amide] | 55 | –
5 | 0 | – | – | O=C(NCc1ccncc1)C12CC3CC(CC(C3)C1)C2 [A60, Adamantane-1-carboxylic acid (pyridin-4-ylmethyl)-amide] | 23 | –
6 | 58 | – | – | O=C(NCc1ccncc1)C12CC3CC(C1)CC(c1ccc(F)cc1)(C3)C2 [A61, 3-(4-Fluoro-phenyl)-adamantane-1-carboxylic acid (pyridin-4-ylmethyl)-amide] | 24 | –
7 | – | 0 | – | O=C(NCc1ccncc1)C12CC3CC(CC(C3)C1)C2 [A63, Adamantane-1-carboxylic acid (pyridin-4-ylmethyl)-amide] | – | 39
8 | 41 | – | 63 | O=C(NCCc1ccncc1)C12CC3CC(C1)CC(c1ccc(Cl)cc1)(C3)C2 [A64, 3-(4-Chloro-phenyl)-adamantane-1-carboxylic acid (2-pyridin-4-yl-ethyl)-amide] | 80 | –
9 | 92 | – | – | Cc1cc2cc(NC(=O)C34CC5CC(C3)CC(c3ccc(Cl)cc3)(C5)C4)ccc2[nH]1 [A66, 3-(4-Chloro-phenyl)-adamantane-1-carboxylic acid (2-methyl-1H-indol-5-yl)-amide] | 8 | –
10 | 17 | – | – | CCn1c2ccccc2c2cc(NC(=O)C34CC5CC(C3)CC(c3ccc(Cl)cc3)(C5)C4)ccc21 [A68, 3-(4-Chloro-phenyl)-adamantane-1-carboxylic acid (9-ethyl-9H-carbazol-3-yl)-amide] | 0 | –
11 | 40 | – | – | O=C(Nc1nc(-c2ccc(Cl)cc2)cs1)C12CC3CC(CC(C3)C1)C2 [A69, Adamantane-1-carboxylic acid [4-(4-chloro-phenyl)-thiazol-2-yl]-amide] | 13 | –
12 | 33 | – | – | O=C(Nc1nc(-c2ccc(Cl)cc2)cs1)C12CC3CC(C1)CC(c1ccc(Cl)cc1)(C3)C2 [A70, 3-(4-Chloro-phenyl)-adamantane-1-carboxylic acid [4-(4-chloro-phenyl)-thiazol-2-yl]-amide] | 4 | –
13 | 27 | – | – | O=C(Nc1nc2ccccc2s1)C12CC3CC(C1)CC(c1ccc(Cl)cc1)(C3)C2 [A71, 3-(4-Chloro-phenyl)-adamantane-1-carboxylic acid benzothiazol-2-ylamide] | 0 | –
14 | 14 | – | – | O=C(Nc1nc2cc(Cl)ccc2o1)C12CC3CC(C1)CC(c1ccc(Cl)cc1)(C3)C2 [A72, 3-(4-Chloro-phenyl)-adamantane-1-carboxylic acid (5-chloro-benzooxazol-2-yl)-amide] | 1 | –
15 | 60 | – | 16 | CN1CCN(NCC23CC4CC(C2)CC(c2ccc(Cl)cc2)(C4)C3)CC1 [A83, [3-(4-Chloro-phenyl)-adamantan-1-ylmethyl]-(4-methyl-piperazin-1-yl)-amine] | 88 | –

More lines, now with the values behind:

Row | SMILES | inhibition at 6 µg/mL (recombinant human SK) [%] | Recombinant SK (% inhibition) (recombinant human SK) [%] | IC50 [1] [µM] | inhibition at 20 µg/mL [1, 2] [%] | Cellular S1P (% inhibition) ([1]; MDA-MB-231 cells incubated with 20 μg/mL of compound, percentage of S1P production inhibited) [%]
16 | O=C(Nc1ccc(O)cc1O)C12CC3CC(C1)CC(c1ccc(Cl)cc1)(C3)C2 [A8, 3-(4-Chloro-phenyl)-adamantane-1-carboxylic acid (2,4-dihydroxy-phenyl)-amide] | 49 | – | – | 0 | –
17 | O=C(Nc1cccc(CO)c1)C12CC3CC(C1)CC(c1ccc(Cl)cc1)(C3)C2 [A9, 3-(4-Chloro-phenyl)-adamantane-1-carboxylic acid (3-hydroxymethyl-phenyl)-amide] | 84 | – | – | 40 | –
18 | N#CCc1ccc(NC(=O)C23CC4CC(CC(C4)C2)C3)cc1 [A10, Adamantane-1-carboxylic acid (4-cyanomethyl-phenyl)-amide] | 3 | – | – | 9 | –
19 | N#CCc1ccc(NC(=O)C23CC4CC(C2)CC(c2ccc(Cl)cc2)(C4)C3)cc1 [A11, 3-(4-Chloro-phenyl)-adamantane-1-carboxylic acid (4-cyanomethyl-phenyl)-amide] | 17 | – | – | 0 | –
20 | O=C(NCc1ccccc1)C12CC3CC(C1)CC(c1ccc(Cl)cc1)(C3)C2 [A12, 3-(4-Chloro-phenyl)-adamantane-1-carboxylic acid benzylamide] | 36 | – | – | 3 | –
21 | CC(C)(C)c1ccc(CNC(=O)C23CC4CC(C2)CC(c2ccc(Cl)cc2)(C4)C3)cc1 [A13, 3-(4-Chloro-phenyl)-adamantane-1-carboxylic acid 4-tert-butyl-benzylamide] | 78 | – | – | 0 | –
22 | CC(NC(=O)C12CC3CC(C1)CC(c1ccc(Cl)cc1)(C3)C2)c1ccc(Br)cc1 (centres unmarked) [A29, 3-(4-Chloro-phenyl)-adamantane-1-carboxylic acid [1-(4-bromo-phenyl)-ethyl]-amide] | 55 | – | – | 0 | –
23 | O=C(NCc1ccc(O)c(O)c1)C12CC3CC(CC(C3)C1)C2 [A35, Adamantane-1-carboxylic acid 3,4-dihydroxy-benzylamide] | 87 | – | – | 0 | –
24 | O=C(NCCc1ccccc1)C12CC3CC(C1)CC(c1ccc(Cl)cc1)(C3)C2 [A37, 3-(4-Chloro-phenyl)-adamantane-1-carboxylic acid phenethyl-amide] | 24 | – | – | 36 | –
25 | O=C(NCCc1ccc(F)cc1)C12CC3CC(C1)CC(c1ccc(Cl)cc1)(C3)C2 [A38, 3-(4-Chloro-phenyl)-adamantane-1-carboxylic acid [2-(4-fluoro-phenyl)-ethyl]-amide] | 40 | – | – | 34 | –
26 | O=C(NCCc1ccc(Br)cc1)C12CC3CC(C1)CC(c1ccc(Cl)cc1)(C3)C2 [A39, 3-(4-Chloro-phenyl)-adamantane-1-carboxylic acid [2-(4-bromo-phenyl)-ethyl]-amide] | 19 | – | – | 26 | –
27 | O=C(NCCc1ccc(O)cc1)C12CC3CC(C1)CC(c1ccc(Cl)cc1)(C3)C2 [A40, 3-(4-Chloro-phenyl)-adamantane-1-carboxylic acid [2-(4-hydroxy-phenyl)-ethyl]-amide] | 100 | – | – | 52 | –
28 | O=C(NCc1ccc(Oc2ccccc2)cc1)C12CC3CC(C1)CC(c1ccc(Cl)cc1)(C3)C2 [A41, 3-(4-Chloro-phenyl)-adamantane-1-carboxylic acid 4-phenoxy-benzylamide] | – | 67 | – | 23 | –
29 | O=C(NCCc1ccc(O)c(O)c1)C12CC3CC(CC(C3)C1)C2 [A43, Adamantane-1-carboxylic acid [2-(3,4-dihydroxy-phenyl)-ethyl]-amide] | 0 | – | – | 0 | –
30 | O=C(NCCCc1ccccc1)C12CC3CC(C1)CC(c1ccc(Cl)cc1)(C3)C2 [A48, 3-(4-Chloro-phenyl)-adamantane-1-carboxylic acid (3-phenyl-propyl)-amide] | 36 | – | – | 14 | –
31 | CN1CCC(NC(=O)C23CC4CC(CC(C4)C2)C3)CC1 [A50, Adamantane-1-carboxylic acid (1-methyl-piperidin-4-yl)-amide] | 0 | – | – | 44 | –
32 | CN1CCC(NC(=O)C23CC4CC(C2)CC(c2ccc(Cl)cc2)(C4)C3)CC1 [A51, 3-(4-Chloro-phenyl)-adamantane-1-carboxylic acid (1-methyl-piperidin-4-yl)-amide] | 84 | – | 25 | 88 | –
33 | O=C(NCc1ccncc1)C12CC3CC(C1)CC(c1ccc(Cl)cc1)(C3)C2 [A62, 3-(4-Chloro-phenyl)-adamantane-1-carboxylic acid (pyridin-4-ylmethyl)-amide] | 13 | – | 26 | 92 | –
